# Measured values: ChEMBL document CHEMBL1201862, “PubChem BioAssay data set” (2004)
# Calls of active or inactive are those of the source.
# Tests used:
# [1] = molecular target: T1, Histone-lysine N-methyltransferase NSD2 (Homo sapiens, UniProt O96028); format: biochemical
# T1 sequence (O96028 whole entry): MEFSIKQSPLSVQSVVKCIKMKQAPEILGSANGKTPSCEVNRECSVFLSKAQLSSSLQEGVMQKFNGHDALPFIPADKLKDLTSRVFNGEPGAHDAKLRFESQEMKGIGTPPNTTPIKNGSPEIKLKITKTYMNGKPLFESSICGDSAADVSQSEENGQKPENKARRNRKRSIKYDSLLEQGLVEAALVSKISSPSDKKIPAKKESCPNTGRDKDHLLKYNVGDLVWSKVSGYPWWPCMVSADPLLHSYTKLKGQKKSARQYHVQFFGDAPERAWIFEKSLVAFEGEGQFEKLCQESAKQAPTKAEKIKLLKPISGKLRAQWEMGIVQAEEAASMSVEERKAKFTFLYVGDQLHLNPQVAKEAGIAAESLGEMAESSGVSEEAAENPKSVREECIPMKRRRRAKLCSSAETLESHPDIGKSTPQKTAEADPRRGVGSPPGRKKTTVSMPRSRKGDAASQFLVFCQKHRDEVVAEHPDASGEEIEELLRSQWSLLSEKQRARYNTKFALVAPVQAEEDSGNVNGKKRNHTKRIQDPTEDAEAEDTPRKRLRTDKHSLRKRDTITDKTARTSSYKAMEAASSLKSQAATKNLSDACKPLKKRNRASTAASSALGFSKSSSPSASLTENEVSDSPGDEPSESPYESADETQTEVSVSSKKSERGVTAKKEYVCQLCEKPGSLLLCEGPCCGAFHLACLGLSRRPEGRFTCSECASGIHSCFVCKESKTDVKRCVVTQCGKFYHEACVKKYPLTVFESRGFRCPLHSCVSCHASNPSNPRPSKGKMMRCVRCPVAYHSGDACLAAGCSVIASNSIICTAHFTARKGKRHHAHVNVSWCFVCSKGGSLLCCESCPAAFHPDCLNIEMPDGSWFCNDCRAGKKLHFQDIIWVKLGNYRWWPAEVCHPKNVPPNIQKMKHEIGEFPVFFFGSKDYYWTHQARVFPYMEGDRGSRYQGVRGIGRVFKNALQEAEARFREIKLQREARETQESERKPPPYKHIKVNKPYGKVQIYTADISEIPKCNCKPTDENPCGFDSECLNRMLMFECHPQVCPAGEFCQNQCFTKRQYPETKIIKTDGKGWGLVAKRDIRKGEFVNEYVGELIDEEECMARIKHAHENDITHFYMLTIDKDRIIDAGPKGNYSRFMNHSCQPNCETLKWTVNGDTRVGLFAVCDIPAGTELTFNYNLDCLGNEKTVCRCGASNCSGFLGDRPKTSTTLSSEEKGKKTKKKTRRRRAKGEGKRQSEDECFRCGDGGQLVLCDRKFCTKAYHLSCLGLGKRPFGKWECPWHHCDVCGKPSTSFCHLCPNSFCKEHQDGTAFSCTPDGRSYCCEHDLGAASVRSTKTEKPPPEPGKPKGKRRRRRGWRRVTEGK
# [2] = molecular target: T2, Heat shock factor protein 1 (Mus musculus, UniProt P38532); assay: enhancement of HSF1-driven luciferase signal – cell-based, NIH3T3, luminescence, dose retest, confirmation (AID 435004); format: functional;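 further: stress induced by proteasome inhibitor MG132 added 30 min after compound; luciferase reporter driven by HSF1 response element in NIH3T3 cells; actives raise luminescence as potentiators of the MG132 stress response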
# T2 sequence (P38532 whole entry): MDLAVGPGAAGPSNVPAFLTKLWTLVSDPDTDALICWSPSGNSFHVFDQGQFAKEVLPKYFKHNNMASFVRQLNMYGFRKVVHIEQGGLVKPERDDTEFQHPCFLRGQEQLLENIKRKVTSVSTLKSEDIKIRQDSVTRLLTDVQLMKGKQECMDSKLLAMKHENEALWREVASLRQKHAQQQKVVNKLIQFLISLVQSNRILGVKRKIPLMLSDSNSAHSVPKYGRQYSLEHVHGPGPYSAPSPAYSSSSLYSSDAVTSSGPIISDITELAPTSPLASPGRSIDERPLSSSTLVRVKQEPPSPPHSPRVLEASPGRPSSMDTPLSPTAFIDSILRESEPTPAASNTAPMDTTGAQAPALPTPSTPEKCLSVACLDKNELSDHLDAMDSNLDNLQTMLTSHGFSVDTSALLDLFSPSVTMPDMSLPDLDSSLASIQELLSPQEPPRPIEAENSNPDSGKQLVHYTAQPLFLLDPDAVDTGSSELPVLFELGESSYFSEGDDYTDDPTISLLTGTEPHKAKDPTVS
# [3] = molecular target: T3, Polyadenylate-binding protein 1 (Homo sapiens, UniProt P11940); assay: MLLE domain peptide-binding blockers, IC50 – biochemical, fluorescence polarization, FITC-PAM2 peptide, dose response (AID 602259); format: functional; details: read-out: IC50_Mean
# [4] = molecular target: T4, Zinc finger protein mex-5 (Caenorhabditis elegans, UniProt Q9XUB2); assay: potency of MEX-5 RNA-binding blockers – biochemical, C. elegans, fluorescence polarization, dose response (AID 1960)
# T4 sequence (Q9XUB2 whole entry): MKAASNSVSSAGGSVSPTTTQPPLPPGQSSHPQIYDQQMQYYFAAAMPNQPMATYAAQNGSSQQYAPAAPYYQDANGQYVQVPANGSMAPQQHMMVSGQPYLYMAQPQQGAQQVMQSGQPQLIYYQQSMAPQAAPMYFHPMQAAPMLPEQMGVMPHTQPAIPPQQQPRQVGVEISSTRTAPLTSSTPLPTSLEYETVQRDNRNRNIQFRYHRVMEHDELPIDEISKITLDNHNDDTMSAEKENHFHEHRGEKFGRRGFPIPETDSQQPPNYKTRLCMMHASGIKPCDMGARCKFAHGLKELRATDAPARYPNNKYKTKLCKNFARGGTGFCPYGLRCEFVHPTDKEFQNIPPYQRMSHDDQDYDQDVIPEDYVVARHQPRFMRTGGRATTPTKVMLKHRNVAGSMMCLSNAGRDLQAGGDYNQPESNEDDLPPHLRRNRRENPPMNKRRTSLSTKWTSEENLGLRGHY
# [5] = molecular target: T5, RNA-binding protein pos-1 (Caenorhabditis elegans, UniProt G5EF15); assay: disruptors of C. elegans POS-1 RNA interaction – biochemical, fluorescence polarization, dose response (AID 1964);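 further: purified POS-1 fused to maltose binding protein made in E. coli; potency of compounds blocking POS-1 binding to fluorescent RNA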
# T5 sequence (G5EF15 whole entry): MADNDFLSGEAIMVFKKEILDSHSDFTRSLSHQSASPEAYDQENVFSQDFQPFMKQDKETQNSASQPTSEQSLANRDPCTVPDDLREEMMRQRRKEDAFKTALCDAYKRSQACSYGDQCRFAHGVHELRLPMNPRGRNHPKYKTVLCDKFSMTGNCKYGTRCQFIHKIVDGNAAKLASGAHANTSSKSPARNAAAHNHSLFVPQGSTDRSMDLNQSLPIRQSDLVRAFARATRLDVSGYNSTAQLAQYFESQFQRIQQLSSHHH
# [6] = molecular target: T3, Polyadenylate-binding protein 1; assay: MLLE binding blockers, Cy5 peptide tracer – biochemical, fluorescence polarization, Cy5-PAM2 peptide, secondary, miRNA deadenylation inhibitor project, dose response (AID 602260); format: functional; details: read-out: IC50_Mean
# [7] = molecular target: T6, Ubiquitin-conjugating enzyme E2 N (Homo sapiens, UniProt P61088); format: functional;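 further: Dose-response confirmation in a TR-FRET assay detecting UBC13-driven polyubiquitin chain formation, inhibition measured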
# T6 sequence (P61088 whole entry): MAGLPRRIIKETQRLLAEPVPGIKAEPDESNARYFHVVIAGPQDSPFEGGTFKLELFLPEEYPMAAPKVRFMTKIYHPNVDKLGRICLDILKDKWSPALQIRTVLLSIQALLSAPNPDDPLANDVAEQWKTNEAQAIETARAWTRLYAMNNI
# [8] = blockers of bursicon-stimulated LGR2 cAMP reporter – cell-based, HEK293, CRE-luciferase reporter, cherry pick, set 2, dose response (AID 743343); format: functional;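 further: transfected cells were stimulated with diluted bursicon conditioned medium after compound addition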
# [9] = molecular target: T2, Heat shock factor protein 1; assay: decrease of HSF1-responsive luciferase luminescence – cell-based, NIH3T3, dose retest, confirmation (AID 2382); format: functional;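 further: NIH3T3 fibroblasts with HSF1-driven luciferase reporter stressed by proteasome inhibitor MG132; luminescence from HSF1-driven luciferase expression after 8 hours of MG132 stress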
# [10] = Luminescence Cell-Based Dose Response HTS to Identify Inhibitors of 5'UTR Stem-Loop Driven Prion Protein mRNA Translation in H4 Neuroglioblastoma Cells. [Related pubchem assays: 1827 (Project Summary), 1813 (Primary HTS)]; format: functional
# [11] = alpha-synuclein stem-loop luciferase translation blockers – H4 neuroglioma cells, luminescence, confirmation (AID 1988); format: functional, cell-based
# HEK293 = assay: EBV LMP1 TES2 canonical NF-kB signalling blockers – cell-based, HEK293, luciferase, cherry-pick, dose response (AID 588343); format: functional; details: Homo sapiens
# [12] = molecular target: T7, Rac GTPase-activating protein 1 (Homo sapiens, UniProt Q9H0H5); assay: blockers of MgcRacGAP-driven Rac1 GTP hydrolysis – biochemical, ADP Hunter fluorescence, primary and confirmatory, confirmation (AID 624330); format: functional
# T7 sequence (Q9H0H5 whole entry): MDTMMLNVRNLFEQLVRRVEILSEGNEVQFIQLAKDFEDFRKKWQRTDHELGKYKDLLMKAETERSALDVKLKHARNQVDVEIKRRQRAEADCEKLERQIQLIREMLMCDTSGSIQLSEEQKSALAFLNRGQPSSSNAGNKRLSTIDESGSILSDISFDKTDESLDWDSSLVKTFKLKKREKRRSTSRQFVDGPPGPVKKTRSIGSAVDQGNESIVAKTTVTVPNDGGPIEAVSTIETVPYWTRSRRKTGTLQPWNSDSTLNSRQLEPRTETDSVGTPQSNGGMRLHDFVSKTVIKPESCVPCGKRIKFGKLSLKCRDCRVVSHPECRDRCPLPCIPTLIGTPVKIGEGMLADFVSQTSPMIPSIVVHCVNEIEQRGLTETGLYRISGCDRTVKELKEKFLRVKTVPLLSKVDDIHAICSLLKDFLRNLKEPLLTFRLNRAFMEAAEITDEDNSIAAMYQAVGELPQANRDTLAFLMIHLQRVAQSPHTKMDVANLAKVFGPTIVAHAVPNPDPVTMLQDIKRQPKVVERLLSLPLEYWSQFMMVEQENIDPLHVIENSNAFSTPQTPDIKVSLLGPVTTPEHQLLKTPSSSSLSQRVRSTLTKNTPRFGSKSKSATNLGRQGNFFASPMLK
# [13] = blockers of HIV-1 envelope-mediated cell-cell fusion – cherry-pick, dose response (AID 652057); format: functional, cell-based
# [14] = HIV-1 AD8 envelope cell-cell fusion blockers – cherry-pick, dose response (AID 652062); format: functional, cell-based;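 further: luciferase signal from cell-cell fusion driven by HIV-1 clade B AD8 Env; potency is for inhibitors of fusion seen as a drop in luminescence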
# [15] = growth inhibition of PfATP4-mutant resistant parasites – NITD609-resistant line, SYBR Green, dry powder, dose response (AID 1159571); format: functional, cell-based;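 further: parasites synchronized at ring stage by sorbitol before testing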
# [16] = P. falciparum Dd2 growth inhibitors, dose response, SYBR Green, cherry-picked samples (AID 1159567); format: functional, cell-based
# [17] = Dd2 malaria parasite growth inhibition potency – SYBR Green, dry powder samples, dose response (AID 1159566); format: functional, cell-based;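 further: potency for growth inhibition with lower SYBR green DNA signal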
# [18] = growth inhibition of yeast DHODH-expressing 3D7 parasites – SYBR Green, dry powder samples, dose response (AID 1159570); format: functional, cell-based;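 further: parasite growth measured after 72 hours of compound exposure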
# T3 sequence (P11940 whole entry, the tested form may be a part): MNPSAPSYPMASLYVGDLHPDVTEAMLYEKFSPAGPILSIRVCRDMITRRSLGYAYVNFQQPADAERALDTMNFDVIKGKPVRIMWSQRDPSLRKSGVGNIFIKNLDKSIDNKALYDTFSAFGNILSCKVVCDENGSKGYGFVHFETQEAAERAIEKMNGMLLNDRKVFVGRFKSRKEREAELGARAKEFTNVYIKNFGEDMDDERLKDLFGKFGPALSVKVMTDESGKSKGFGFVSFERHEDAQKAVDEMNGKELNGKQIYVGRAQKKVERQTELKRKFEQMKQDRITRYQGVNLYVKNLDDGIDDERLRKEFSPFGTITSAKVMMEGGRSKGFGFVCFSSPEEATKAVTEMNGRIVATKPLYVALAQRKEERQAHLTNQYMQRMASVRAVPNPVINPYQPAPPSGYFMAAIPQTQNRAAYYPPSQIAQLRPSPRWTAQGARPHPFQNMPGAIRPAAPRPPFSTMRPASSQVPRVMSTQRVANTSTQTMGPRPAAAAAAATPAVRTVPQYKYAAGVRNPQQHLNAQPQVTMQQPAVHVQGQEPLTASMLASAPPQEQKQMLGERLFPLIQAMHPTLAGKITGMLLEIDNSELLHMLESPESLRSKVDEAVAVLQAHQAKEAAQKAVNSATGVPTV
compound,measurement,setting,value
CCN(CC)CCCn1c(=S)[nH]c2ncccc2c1=O,AC50,[1],9.8 µM (active)
same,EC50,[2],> 260 µM (inactive)
COc1ccc(NC(=O)Nc2ccc(OCc3ccccc3)cc2)cn1,IC50,[3],20 µM (active)
same,EC50,[4],17.9 µM (active)
same,EC50,[5],29.2 µM (active)
same,IC50,[6],> 66 µM (inactive)
CC(C)SC1=NSC2=NC(=O)/C(=C\c3c[nH]c4ccccc34)C(=N)N21,EC50,[4],> 300 µM (not active)
same,EC50,[5],18.6 µM (active)
NCCCC[C@@H]1NC(=O)c2cc([N+](=O)[O-])cc(F)c2NCCCC[C@@H](C(N)=O)NC(=O)CNC1=O,IC50,[7],> 20 µM (inactive)
COc1ccc(OC)c(C2Nc3c(Cl)ccc(C(=O)O)c3C3C=CCC32)c1 (stereo unspecified),EC50,[4],40.7 µM (active)
same,EC50,[5],> 300 µM (not active)
O=C(CC1CS(=O)(=O)CC1CC(=O)Nc1ccc2c(c1)OCCO2)Nc1ccc2c(c1)OCCO2 (stereo unspecified),AC50,[8],45.8 µM (active)
CC1CCCN(c2nc3ccccc3nc2C(C#N)S(=O)(=O)c2cccs2)C1 (stereo unspecified),IC50,[3],> 66 µM (inactive)
same,EC50,[4],11.2 µM (inconclusive)
same,EC50,[5],7.02 µM (inconclusive)
same,IC50,[6],> 66 µM (inactive)
Cc1cc(C)nc(NS(=O)(=O)c2ccc(-n3cccc3)cc2)n1,AC50,[1],> 20 µM (inactive)
same,EC50,[9],> 195 µM (not active)
Cc1nc(C)c(C(=O)Nc2ncc([N+](=O)[O-])s2)o1,AC50,[1],> 20 µM (inactive)
same,EC50,[10],10.2 µM (inconclusive)
same,EC50,[11],8.92 µM (inconclusive)
same,AC50,HEK293,3.12 µM (active)
CC(C)Cn1cc(C(=O)NCCCN2CCC(C)CC2)c2c3ccccc3n(C)c2c1=O,IC50,[7],> 20 µM (inactive)
CN(c1ccc(O)cc1)c1ccc([N+](=O)[O-])c2nonc12,IC50,[12],135 µM (active)
same,AC50,[1],> 20 µM (inactive)
CC(C)COC(=O)N(C)C[C@H]1OCc2ccccc2-c2c(n(C)c3ccccc23)C(=O)N([C@H](C)CO)C[C@@H]1C,AC50,[13],< 0.26 µM (active)
same,AC50,[14],0.304 µM (active)
Cc1ccc(/C=N/Nc2[nH]cnc3ncnc2-3)cc1,EC50,[4],> 300 µM (inconclusive)
same,EC50,[5],> 300 µM (not active)
COc1ccc2c3c([nH]c2c1)[C@H](CO)N(Cc1cccc(F)c1)CC31CCN(Cc2ccccn2)CC1,AC50,[15],0.922 µM (active)
same,AC50,[16],1.07 µM (active)
same,AC50,[17],0.906 µM (active)
same,AC50,[18],0.902 µM (active)
O=C(C1CCCC1)N1CC2(C1)[C@@H](c1ccccc1)[C@H](CO)N2Cc1ccc(Cl)cc1,AC50,[15],3.62 µM (active)
same,AC50,[16],1.49 µM (active)
same,AC50,[17],1.98 µM (active)
same,AC50,[18],3.13 µM (active)
COc1ccccc1S(=O)(=O)N(C)C[C@H]1Oc2cc(/C=C/c3ccccc3)ccc2S(=O)(=O)N([C@H](C)CO)C[C@@H]1C,AC50,[15],1.78 µM (active)
same,AC50,[16],2.43 µM (active)
same,AC50,[17],1.9 µM (active)
same,AC50,[18],2.34 µM (active)
